Where two headings read alike, the source gives them in different places.
What was measured:
Type in all cases: cell-based, human
[1] = tested on: platelets of sepsis patients; experiment: Platelet reactivity by flow cytometry in whole blood (PAC-1 binding, CD62P exposure); details: sepsis patients vs healthy controls, day of ICU admission; CRP-XL 0.01 μg/mL, convulxin 0.01 μg/mL, ADP 5 μM
Description: Platelet reactivity assays are shown at the following time points: I: admission day, II: day 5-7 and III: day of ICU discharge. (S)=sepsis patient; (HC)=healthy control. (A-H) Platelet integrin activation (A, C, E, G) and P-selectin exposure (B, D, F, H) were measured upon stimulation with CRP-XL [0.01 μg/mL](A-D), Convulxin [0.01 μg/ml] (E, F) and ADP [5 μM] (G, H) in whole blood by flow cytometry. […] (I-N) Maximum aggregation is depicted upon stimulation with CRP-XL [0.1 μg/mL] (I, J) rhodocytin [1 nM] (K, L) and TRAP-6 [10 μM] (M, N). […] Graphs show median±IQR. Differences were analyzed by Kruskal-Wallis test (A-N). n.s. non-significant, *p>0.05, **p>0.01, ***p>0.001, ****p>0.0001
Platelet reactivity of healthy controls (HC) and patients with sepsis (S) is depicted upon stimulation with CRP-XL standard dose [0.1 μg/mL in aggregometry; 0.01 μg/mL in flow cytometry] and CRP-XL high dose (CRP-XLhi) [1 μg/mL] (A-B) Platelet activation due to integrin activation indicated through PAC-1 binding (A) or P-selectin exposure (B) was assessed in whole blood by flow cytometry. (C-D) Light transmission aggregometry was performed using washed platelets [500 000 1/μL]. Samples were measured for 5 minutes. […] All graphs show median f IQR. […]

[2] = tested on: platelets of Covid-19 patients
[3] = tested on: platelets (GPVI-mediated platelet reactivity); experiment: Platelet-antibiotic co-incubation in whole blood, P-selectin exposure by flow cytometry; details: whole blood of healthy donors, antibiotic at therapeutic peak plasma level, 2 h at 37° C., resting and CRP-XL [0.01 μg/mL] stimulated platelets
Description: Antibiotics were added to whole blood of healthy donors. Incubation was performed for 2 h at 37° C. P-selectin exposure was determined subsequently by flow cytometry on resting (A) and CRP-XL [0.01 μg/mL] stimulated platelets (B). The following drugs were used: piperacillin/tazobactam [P/T=298 μg/mL; 4 μg/mL], vancomycin [V=60 μg/mL], metronidazole [M=25 μg/mL], ciprofloxacin [Cx=4.56 μg/mL].
Whole blood was diluted 1:10 in modified HEPES-buffered Tyrode's solution (NaCl 137 mM, NaHCO312 mM, HEPES 5 mM, KCl 2.7 mM, MgCl2 1 mM, Na2HPO4 0.43 mM, glucose 0.1%, BSA 0.36%). Flow cytometry was conducted using a FACSCelesta™ flow cytometer (Becton Dickinson, Franklin Lakes, NJ, USA). Prior to reactivity measurement, platelets were incubated with respective agonists at indicated concentrations for five minutes. Staining of reticulated platelets was performed using thiazole orange (Sigma Aldrich, St. Louis, MO, USA) for 60 min at room temperature protected from light. After antibody addition samples rested for 15 min in the dark until the reaction was stopped with addition of 1.5 mL FACS-Flow sample buffer (Becton Dickinson).
As all sepsis patients received antibiotic therapy, the present inventors next evaluated whether antimicrobial drugs could reduce GPVI/CLEC-2 reactivity.

[4] = tested on: washed platelets of sepsis patients; experiment: Light transmission aggregometry with washed platelets; details: for aggregation at last visit, discharged patients vs patients who died: last available values (discharge/death)
Description: Platelet reactivity assays are shown at the following time points: I: admission day, II: day 5-7 and III: day of ICU discharge. (S)=sepsis patient; (HC)=healthy control. (A-H) Platelet integrin activation (A, C, E, G) and P-selectin exposure (B, D, F, H) were measured upon stimulation with CRP-XL [0.01 μg/mL](A-D), Convulxin [0.01 μg/ml] (E, F) and ADP [5 μM] (G, H) in whole blood by flow cytometry. Representative curves upon CRP-XL stimulation at time point I are shown in A and B. (I-N) Light transmission aggregometry was performed using washed platelets [500 000 1/μL]. (I-N) Maximum aggregation is depicted upon stimulation with CRP-XL [0.1 μg/mL] […] (K, L) and TRAP-6 [10 μM] (M, N). Representative curves are shown in FIG. I, K, M. […] Graphs show median±IQR. Differences were analyzed by Kruskal-Wallis test (A-N). n.s. non-significant, *p>0.05, **p>0.01, ***p>0.001, ****p>0.0001
Platelet reactivity of healthy controls (HC) and patients with sepsis (S) is depicted upon stimulation with CRP-XL standard dose [0.1 μg/mL in aggregometry; 0.01 μg/mL in flow cytometry] and CRP-XL high dose (CRP-XLhi) [1 μg/mL] (A-B) Platelet activation due to integrin activation indicated through PAC-1 binding (A) or P-selectin exposure (B) was assessed in whole blood by flow cytometry. (C-D) Light transmission aggregometry was performed using washed platelets [500 000 1/μL]. Samples were measured for 5 minutes. Representative curves are shown in C. (D-E) Platelets were lysed after 5 minutes of CRP-XL stimulation or resting conditions. Staining was performed with phospho-tyrosine antibody 4g10. 72 kDa band intensity was set in relation to a housekeeping protein in arbitrary units (AU). All graphs show median f IQR.
(A) Light transmission aggregometry was performed using washed platelets [500 000 1/μL]. Maximum aggregation is depicted upon stimulation with CRP-XL (C) [0.1 μg/mL] and TRAP-6 [5 μM](T). (B) mean platelet volume. (C) Reticulated platelets indicated as thiazole orange (TO) positive fraction were assessed by flow cytometry. (D) GPVI-ectodomain plasma-levels measured by ELISA. (E) Platelet count. (F) SOFA-Score. All graphs show median f IQR. Differences were analyzed using Kolmogorov-Smirnov test. n.s. non-significant, *p>0.05, **p>0.01,
After centrifugation of whole blood at 152 g for 20 min, platelet rich plasma (PRP) was separated and incubated in acetylsalicylic acid (ASS) for 30 min (final concentration 2 μM). Prostaglandine E1 (1 μM) and apyrase (2 U/mL) were added and platelets were washed with modified HEPES-buffered Tyrode's solution once (1000 g, 10 min). PPP was cryopreserved for further investigation. Afterwards platelet count was adjusted to 500 000 1/μL through resuspension in re-calcified Hepes buffered Tyrode's solution (CaCl2) 2 mM). Light transmission aggregometry was performed using an APACT 4S (LABiTec, Ahrensburg, Germany) aggregometer at 37° C. stirring conditions. Maximum aggregation was assessed in percent in relation to re-calcified Hepes buffered Tyrode's solution as blank. For further molecular analysis platelets were lysed through addition of ice-cold 2× lysis buffer (NaCl150 mM, HEPES 15 mM, EGTA10 mM, Triton X-100 2%, Na3VO4 2 mM, PMSF 1 mM, Aprotinin A 1 mM, Leupeptin 1 mM, Pepstatin 1 mM).

[5] = tested on: washed platelets; experiment: Immunoblot of global tyrosine phosphorylation (4G10) in platelet lysates; details: 0.1 μg/mL CRP-XL or 10 nM rhodocytin
Description: Washed platelets [500 000 1/μL] of healthy controls (HC) and patients (S) were stimulated with CRP-XL (C) and rhodocytin (R). Lysis was done at the following time points: C: 5 min, R: 10 min. I: admission day, II: day 5-7 and III: day of ICU discharge. (A-C) Western Blot analysis of platelet lysates. Staining was performed with anti-phospho-tyrosine antibody 4g10. 72 kDa band intensity was set in relation to signal intensity of Syk or GAPDH in arbitrary units (AU). Representative blots are shown in figures A (time point I) and B (time point III). (D-F) Phosphorylation of signaling peptides Syk and Lat was investigated by Western blot. One representative blot is shown in D. (G-J) Phosphorylation analysis of ITIM-signaling associated phosphatases SHP-1 and SHP-2. Phospho-protein intensity was set in relation to intensity of unphosphorylated protein shown in H and J. Representative Western blots are shown in G and I. All graphs display median f IQR.
After centrifugation of whole blood at 152 g for 20 min, platelet rich plasma (PRP) was separated and incubated in acetylsalicylic acid (ASS) for 30 min (final concentration 2 μM). Prostaglandine E1 (1 μM) and apyrase (2 U/mL) were added and platelets were washed with modified HEPES-buffered Tyrode's solution once (1000 g, 10 min). […] Maximum aggregation was assessed in percent in relation to re-calcified Hepes buffered Tyrode's solution as blank. […]

Nc1ncnc2c1ncn2[C@@H]1O[C@H](COP(=O)(O)OP(=O)(O)O)[C@@H](O)[C@H]1O [ADP]
platelet activation (PAC-1 binding, CD62P exposure) upon stimulation [1]: platelet reactivity was also highly impaired
platelet reactivity upon stimulation ([2]; 19 critically-ill Covid-19 patients, 14 days at ICU): global hyporeactivity

O=C(O)c1cn(C2CC2)c2cc(N3CCNCC3)c(F)cc2c1=O [ciprofloxacin]
impact on GPVI-mediated platelet reactivity (P-selectin exposure) [3]: none of these drugs had an impact on GPVI-mediated platelet reactivity

Cc1ncc([N+](=O)[O-])n1CCO [metronidazole]
impact on GPVI-mediated platelet reactivity (P-selectin exposure) [3]: none of these drugs had an impact on GPVI-mediated platelet reactivity

CN[C@H](CC(C)C)C(=O)N[C@H]1C(=O)N[C@@H](CC(N)=O)C(=O)N[C@H]2C(=O)N[C@H]3C(=O)N[C@H](C(=O)N[C@H](C(=O)O)c4cc(O)cc(O)c4-c4cc3ccc4O)[C@H](O)c3ccc(c(Cl)c3)Oc3cc2cc(c3O[C@@H]2O[C@H](CO)[C@@H](O)[C@H](O)[C@H]2O[C@H]2C[C@](C)(N)[C@H](O)[C@H](C)O2)Oc2ccc(cc2Cl)[C@H]1O [vancomycin]
impact on GPVI-mediated platelet reactivity (P-selectin exposure) [3]: none of these drugs had an impact on GPVI-mediated platelet reactivity

TRAP-6
aggregation at last visit, discharged patients vs patients who died ([4]; sepsis patients): no differences
aggregation potential, mean ([4]; sepsis platelets, day of ICU admission, 10 μM TRAP-6): 34.2%
aggregation potential, minimum ([4]; sepsis platelets, day of ICU admission, 10 μM TRAP-6, every studied patient): ≥ 21.2%
platelet reactivity upon stimulation [2]: global hyporeactivity

piperacillin/tazobactam
impact on GPVI-mediated platelet reactivity (P-selectin exposure) [3]: none of these drugs had an impact on GPVI-mediated platelet reactivity

B1: rhodocytin: selective CLEC-2 agonist (protein)
chain 1: GLEDCDFGWSPYDQHCYQAFNEQKTWDEAEKFCRAQENGAHLASIESNGEADFVSWLISQKDELADEDYVWIGLRAQNKEQQCSSEWSDGSSVSYENLIDLHTKKCGALEKLTGFRKWVNYYCEQMHAFVCKLLPY
chain 2: DCPSGWSSYEGHCYKPFNEPKNWADAERFCKLQPKHSHLVSFQSAEEADFVVKLTRPRLKANLVWMGLSNIWHGCNWQWSDGARLNYKDWQEQSECLAFRGVHTEWLNMDCSSTCSFVCKFKA
platelet aggregation upon stimulation ([4]; sepsis patients vs healthy controls, time point I, CRP-XL 0.1 μg/ml, rhodocytin 10 nM): abolished aggregation was found in 5/8 patients
aggregation at last visit, discharged patients vs patients who died ([4]; sepsis patients): no differences
maximum aggregation, recovery at discharge ([4]; sepsis patients, time point III (discharge from ICU), CRP-XL 0.1 μg/ml, rhodocytin): completely recovered
induction of tyrosine phosphorylation (pTyr bands) ([5]; platelets of healthy donors): readily inducible in healthy donors
induction of tyrosine phosphorylation (pTyr bands) ([5]; platelets of sepsis patients): tyrosine phosphorylation was not inducible in platelets of sepsis patients

B2: convulxin (protein)
chain 1: GLHCPSDWYYYDQHCYRIFNEEMNWEDAEWFCTKQAKGAHLVSIKSAKEADFVAWMVTQNIEESFSHVSIGLRVQNKEKQCSTKWSDGSSVSYDNLLDLYITKCSLLKKETGFRKWFVASCIGKIPFVCKFPPQC
chain 2: GFCCPSHWSSYDRYCYKVFKQEMTWADAEKFCTQQHTGSHLVSFHSTEEVDFVVKMTHQSLKSTFFWIGANNIWNKCNWQWSDGTKPEYKEWHEEFECLISRTFDNQWLSAPCSDTYSFVCKFEA
platelet activation (PAC-1 binding, CD62P exposure) upon stimulation [1]: impaired platelet activation was still evident, albeit to a lesser extent compared to CRP-XL

Source: patent publication US12699084B2, “Method and means for diagnosing a human sepsis” (Julius-Maximilans-Universität Würzburg, priority 2019, dated 2026)
